Like-named read-outs stand apart in the source and are kept apart here.
How the values were obtained:
[1] = system: Wolman fibroblasts; assay: Amplex-Red cholesterol assay in Wolman fibroblasts; type: cell-based, human; details: for cholesterol accumulation: cyclodextrins alone, other lysosomal storage disorders (FIG. 1)
Protocol: (§1) Amplex-Red Cholesterol Assay—Total cholesterol in patient cells was measured by the Amplex-Red Cholesterol Assay Kit (Invitrogen). The unesterified cholesterol was determined using the same kit without the enzyme […]. Esterified cholesterol was determined as the difference between the total and unesterified cholesterol values. The cells were seeded to black, tissue culture-treated 96-well, 384-well or 1536-well plates at 4000, 1000, 300 cells/well in 100, 20 or 5 μl medium by a Multidrop Combi dispenser (Thermo Scientific, Waltham, Mass.) and cultured for 24 hr. The assay plates were added with compound dilution in DMSO solution using a Pintool station (Klaypsys, San Diego, Calif.) and cultured for 3 days. The cells were washed twice manually for 96-well or 384-well plates or using a centrifugation method in which the inverted plates were placed on a stack of paper towel and centrifuged at 800 rpm for 1 min followed by addition of 7 μl/well PBS (added gently with a 45 degree angled liquid dispenser (Klaypsys). The cholesterol assay mixture from the kit was added at 100, 20 or 2.5 μl/well for 96-well, 384-well or 1536-well plates and incubated for 1 hr at 37° C. The resulted fluorescence intensity was measured with excitation of 560 (±10) and emission of 590 (±10) in a fluorescence plate reader (Tecan, Durham, N.C.).

[2] = system: Wolman fibroblasts; assay: β-Hexosaminidase (HEXB) release, lysosomal exocytosis; type: cell-based, human; details: for lysosomal exocytosis as determined by HEXB secretion: Wolman fibroblasts, FIG. 3; for exocytosis: cyclodextrins, wild type and Wolman cells, assay not stated
Protocol: Measurement of β-Hexosaminidase (HEXB) Release—Fibroblasts were cultured in 24-well plates at 30,000 cells/well in 0.4 ml medium for one day at 37° C. After being washed twice with the assay buffer (DMEM with 2 mM D-mannose 6-phosphate sodium salt), the cells with 0.4 ml/well the assay buffer were incubated at 37° with 0.2 ml/well compound in assay buffer. […] The rest of assay buffer in the 24-well plate was discarded followed by addition of 0.6 ml 1% Triton-X100 in dH2O to lyse the cells. After incubation at 37° C. for 30 min. 6 μl/well cell lysate were added to the 96-well plate with 24 μl assay buffer followed by 90 μl/well 2.25 mM HEXB substrate, 4-Methylumbelliferyl N-acetyl-β-D-glucosaminide (Sigma-Aldrich, #M2133), in a 25 mM citric acid buffer at pH 4.5. The 96-well plate was then measured in the Tecan fluorescence plate reader (Ex=365±20 nm and Em=460±20 nm) after 1 hr incubation at 37° C. and addition of 100 μl/well stop solution (1 M glycine and 1 M NaOH at pH 10.5).
FIG. 3. […] We measured lysosomal exocytosis in delta-T-treated Wolman fibroblasts by determining the activity of beta-hexosaminidase (HEXB), a lysosomal enzyme, in the extracellular medium.
In brief, the level of lysosomal exocytosis was determined by measuring the level of the lysosomal enzyme HEXB secreted into the culture medium following treatment with drug.

[3] = system: fibroblasts derived from patients with lysosomal storage diseases; assay: LysoTracker dye staining of enlarged lysosomes; type: cell-based, human; details: for concentration needed for significant effect on reduction of enlarged lysosome size: single compound use, skin fibroblasts of nine lysosomal storage diseases
Protocol: (§2) On the experimental day, cells were live-stained with 100 μl/well 50 nM LysoTracker-Red DND-99 dye (Invitrogen, #L-7528) in medium at 37° C. for 1 hr followed by plate washing twice with PBS. The plate was then fixed in 100 μl/well 3.2% formaldehyde for 1 hr and washed for two times with PBS. […] After washing twice with PBS, the plates were stored at 4° C. until imaging analysis. DAPI filter set and TRITC filter set in the Incell2000 imaging plate reader were used to visualize Hoechst nuclear staining and LysoTracker staining, respectively.
FIG. 5. […] To test this hypothesis we measured the ability of delta-T to decrease acidic/lysosomal compartment size as determined by LysoTracker staining in fibroblasts derived from patients with six other diseases. Lysosomal storage occurs in these fibroblasts consists of ceroid/lipofuscin in Batten (CLN2), globotriaosylceramide in Fabry, ceramide in Farber, sphingomyelin in NPA, partially degraded heparan sulfate in Sanfilippo type B, and GM2 ganglioside in Tay-Sachs (Table S1).
The effect of various cyclodextrins, δ-tocopherol, and combinations of cyclodextrins and δ-tocopherol on lipid accumulation and lysosome size in wild-type and lysosomal storage disease fibroblasts (Wolman, Tay-Sach, Fabry, Farber, and MPSIIIB fibroblasts) was determined using Lysotracker assay. In brief, cells were treated with various combinations and concentrations of drugs followed by staining with the Lyso tracker dye which is a basophilic fluorescent probe that accumulates in acidic compartments, i.e. lysosomes, within the cell.

[4] = system: NPC1 skin fibroblasts; assay: Cholesterol accumulation (Amplex-red, filipin) and enlarged lysosomes (Lysotracker) in NPC1 skin fibroblasts; type: cell-based, human; details: for ranking order of cholesterol reduction effect / cholesterol accumulation: NPC cells
Protocol: as §1

[5] = system: NPC1-NSCs; assay: Amplex-red cholesterol assay in NPC1 neural stem cells; type: cell-based, human
Protocol: as §1
(§3) Induced pluripotent stem cells (IPSCs) from the NPC1 skin fibroblasts were generated and differentiated into neural stem cells (NPC1-NSCs).

[6] = system: NPC1-NSCs; assay: Filipin and Lysotracker staining in NPC1 neural stem cells; type: cell-based, human; details: fluorescence microscopy, FIG. 12B
Protocol: as §2, §3

[7] = system: mouse model of Niemann Pick Type C (NPC) disease; details: cited from earlier work
[8] = system: NPC1, Wolman and other lysosome storage disorder fibroblasts; assay: Electron microscopy of lysosomal ultrastructure; details: Wolman fibroblasts; FIG. 6
Protocol: Electron Microscopy—Fibroblast cells were seeded in 6-well plates at 150,000 cells/well in 5 ml medium and cultured for 1 day in the presence or absence of compounds. Cells were fixed in 2% glutaraldehyde, 0.1 M cacodylate buffer, pH 7.2 for 1 hr at room temperature and then stored at 4° C. until TEM analysis was performed. The cells were post fixed in 1% osmium tetroxide in the same buffer for 1 hour and en bloc stained with 0.5% uranyl acetate in 0.1 M acetate buffer, pH 4.2. The cells were then dehydrated in graded ethanol solutions (35%, 50%, 70%, 95% and 100%) and infiltrated overnight in epoxy resin (Poly/Bed 812, Polysciences). After adding fresh pure resin the cell plates were cured for 72 h in 55° C. After removing the polystyrene plates, suitable areas for thin sectioning were selected, cut out with a jewelry saw and glued onto empty resin stubs. About 70 nm thin sections were cut on an ultramicrotome (Leica EM UC6) and mounted on naked copper grids. The thin sections were double stained (uranyl acetate and lead citrate), examined in a Hitachi H-7650 transmission electron microscope, and images were taken using an AMT CCD camera.
The effects of δ-tocopherol and methyl-β-cyclodextrin on the ultrastructural pathology of lysosomes in lysosome storage disorder cells were investigated by electron microscopy. In brief, following treatment of wild-type and lysosome storage disorder fibroblasts with δ-tocopherol, methyl-β-cyclodextrin, or δ-tocopherol and methyl-β-cyclodextrin, the fibroblasts were fixed and embedded. Thin sections of the embedded cells were then prepared and the ultrastructural pathology was examined by electron microscopy. […] The effects of δ-tocopherol and/or methyl-β-cyclodextrin on the ultrastructural pathology of other lysosome disorder fibroblasts-Farber (FIGS. 7,8 and 10); Tay-Sachs (FIG. 8); Fabry (FIG. 8); Wolman (FIG. 9); NPA (FIG. 9); Batten (FIG. 9); MSIIB (FIG. 9)—were analyzed by electron microscopy.

[9] = system: Wolman fibroblasts; assay: Nile Red staining of neutral lipids in Wolman fibroblasts; details: cultured with compound for 3 days
Protocol: Nile-red Staining—The cells were cultured and treated as described above in 96-well plates. On the experimental day, cells were washed two times with PBS and live-stained with 1 μM Nile-red dye solution (prepared in cell culture medium) at 100 μl/well followed by an incubation at 37° C. for 10 min. After washed twice with PBS, the cells were fixed in 3.2% paraformaldehyde in PBS at 100 μl/well 1 μg/ml Hoechst 33342 (Invitrogen) in PBS and incubation at RT for 30 min. The plate was washed twice with PBS and the images were measured in Incell2000 imaging plate reader with a FTTC filter set (Ex=480±20 nm and Ex=525±36 nm) for the neutral lipids (cholesteryl esters and triglycerides) and a DAPI filter set for Hoechst nuclear staining.
(Nile Red) Cells were cultured in the presence of delta tocopherol, alpha tocopherol and MBCD plus in combination for 3 days and then stained for neutral lipid with Nile red.
Wolman fibroblasts were treated with δ-tocopherol, α-tocopherol, methyl-β-cyclodextrin, or combinations of δ-tocopherol and methyl-β-cyclodextrin or α-tocopherol and methyl-β-cyclodextrin. […] To further characterize the effect of treatment on lipid accumulation, treated fibroblasts were evaluated using a Nile Red assay to measure neutral lipid accumulation. […] The Nile Red staining was visualized by fluorescent microscopy.

[10] = system: primary NPC fibroblasts; details: primary NPC fibroblasts / LSD fibroblast; reported; cited from earlier work
[11] = system: NPC cells; details: NPC / NPC1 cells; reported; cited from earlier work
[12] = NPC1-NSCs, FIG. 12A, read-out: IC50, Amplex-red cholesterol assay

COC[C@H]1O[C@@H]2O[C@H]3[C@H](O)[C@@H](OC)[C@@H](O[C@H]4[C@H](O)[C@@H](OC)[C@@H](O[C@H]5[C@H](O)[C@@H](OC)[C@@H](O[C@H]6[C@H](O)[C@@H](OC)[C@@H](O[C@H]7[C@H](O)[C@@H](OC)[C@@H](O[C@H]8[C@H](O)[C@@H](OC)[C@@H](O[C@H]1[C@H](O)[C@H]2OC)O[C@@H]8COC)O[C@@H]7COC)O[C@@H]6COC)O[C@@H]5COC)O[C@@H]4COC)O[C@@H]3COC [MBCD, Heptakis(2,6-di-o-methyl)-beta-cyclodextrin]
reduction in total cholesterol ([1]; Wolman fibroblasts, FIGS. 1A-1C): significant reduction | reduction in free cholesterol ([1]; Wolman fibroblasts, FIGS. 1D-1F): significant reduction | cholesterol accumulation [1]: most potent | lysosomal exocytosis as determined by HEXB secretion [2]: significant increases in lysosomal exocytosis | LysoTracker staining ([3]; NPC1 and Wolman fibroblasts, 40 μM delta-T or 300 μM MBCD): significantly reduced LysoTracker staining | lipid accumulation and lysosome size (Lysotracker) ([3]; Wolman, Tay-Sach, Fabry, Farber, MPSIIIB fibroblasts, FIGS. 5A-5D): reduced lipid accumulation and lysosome size | concentration needed for significant effect on reduction of enlarged lysosome size [3]: 300 µM | reduction of cholesterol accumulation and enlarged lysosomes ([4]; NPC1 skin fibroblasts, 160 μM MBCD alone, 50 μM HBPCD or 20 μM MBCD with 10 μM delta-tocopherol, FIG. 11): almost completely reversed the phenotype | ranking order of cholesterol reduction effect [4]: MBCD>alpha-CD>gamma-CD | potency of MBCD relative to HBPCD ([4]; reduction of cholesterol accumulation and enlarged lysosome size in NPC1 fibroblasts): over 30 fold | IC50 [5, 12]: 10 µM | reduction of cholesterol accumulation (filipin staining) and enlarged lysosomes (Lysotracker staining) [6]: better than those of delta-tocopherol | cholesterol accumulation and neuronal cell loss [7]: reduced cholesterol accumulation and neuronal cell loss | abnormal lysosomal structures (electron microscopy) [8]: significantly reduced | neutral lipid accumulation (Nile red) ([9]; FIG. 2): reduces accumulation of neutral lipids | neutral lipid accumulation (Nile red) ([9]; FIG. 2, listed as methyl-β-cyclodextrin): significantly reduced

OC[C@H]1O[C@@H]2O[C@H]3[C@H](O)[C@@H](O)[C@@H](O[C@H]4[C@H](O)[C@@H](O)[C@@H](O[C@H]5[C@H](O)[C@@H](O)[C@@H](O[C@H]6[C@H](O)[C@@H](O)[C@@H](O[C@H]7[C@H](O)[C@@H](O)[C@@H](O[C@H]1[C@H](O)[C@H]2O)O[C@@H]7CO)O[C@@H]6CO)O[C@@H]5CO)O[C@@H]4CO)O[C@@H]3CO [alpha-CD, α-cyclodextrin]
cholesterol accumulation [1]: can reduce cholesterol accumulation | exocytosis [2]: enhance exocytosis | cholesterol accumulation [4]: can reduce cholesterol accumulation | ranking order of cholesterol reduction effect [4]: MBCD>alpha-CD>gamma-CD

OC[C@H]1O[C@@H]2O[C@H]3[C@H](O)[C@@H](O)[C@@H](O[C@H]4[C@H](O)[C@@H](O)[C@@H](O[C@H]5[C@H](O)[C@@H](O)[C@@H](O[C@H]6[C@H](O)[C@@H](O)[C@@H](O[C@H]7[C@H](O)[C@@H](O)[C@@H](O[C@H]8[C@H](O)[C@@H](O)[C@@H](O[C@H]1[C@H](O)[C@H]2O)O[C@@H]8CO)O[C@@H]7CO)O[C@@H]6CO)O[C@@H]5CO)O[C@@H]4CO)O[C@@H]3CO [beta-CD, β-cyclodextrin]
cholesterol accumulation [1]: can reduce cholesterol accumulation | exocytosis [2]: enhance exocytosis | cholesterol accumulation [4]: can reduce cholesterol accumulation | lysosomal exocytosis [10]: increased exocytosis

COc1cc(/C=C/C(=O)CC(=O)/C=C/c2ccc(O)c(OC)c2)ccc1O [curcumin]
cholesterol efflux, accumulation or storage [11]: reduce cholesterol storage

OC[C@H]1O[C@@H]2O[C@H]3[C@H](O)[C@@H](O)[C@@H](O[C@H]4[C@H](O)[C@@H](O)[C@@H](O[C@H]5[C@H](O)[C@@H](O)[C@@H](O[C@H]6[C@H](O)[C@@H](O)[C@@H](O[C@H]7[C@H](O)[C@@H](O)[C@@H](O[C@H]8[C@H](O)[C@@H](O)[C@@H](O[C@H]9[C@H](O)[C@@H](O)[C@@H](O[C@H]1[C@H](O)[C@H]2O)O[C@@H]9CO)O[C@@H]8CO)O[C@@H]7CO)O[C@@H]6CO)O[C@@H]5CO)O[C@@H]4CO)O[C@@H]3CO [gamma-CD, γ-cyclodextrin]
cholesterol accumulation [1]: can reduce cholesterol accumulation | exocytosis [2]: enhance exocytosis | cholesterol accumulation [4]: can reduce cholesterol accumulation | ranking order of cholesterol reduction effect [4]: MBCD>alpha-CD>gamma-CD

Cc1c(C)c2c(c(C)c1O)CC[C@@](C)(CCC[C@H](C)CCC[C@H](C)CCCC(C)C)O2 [α-tocopherol]
lysosomal exocytosis as determined by HEXB secretion [2]: significant increases in lysosomal exocytosis | neutral lipid accumulation (Nile red) ([9]; FIG. 2): failed to show any effect | neutral lipid accumulation (Nile red) ([9]; FIG. 2, listed as Alpha Tocopherol): not as potent

(2-Hydroxypropyl)-beta-cyclodextrin [HBPCD]
concentration needed for significant effect on reduction of enlarged lysosome size [3]: 8000 µM | concentration needed for reduction of cholesterol accumulation and enlarged lysosomes ([4]; NPC1 skin fibroblasts, single use, FIG. 11A): millimolars | potency in NPC1 neuronal cells compared to NPC1 skin fibroblasts [5]: much more potent | cholesterol accumulation, combination therapy experiment ([5]; 50 μM HBPCD, 10 μM delta-tocopherol, alone or combined, compared with 5 mM HBPCD): did not show the significant cholesterol reduction effect | IC50 [5, 12]: 12 µM | ratio of IC50 HBPCD to IC50 delta-tocopherol ([5]; human NPC1 neural stem cells): 3.3 fold | IC50 ([5]; human NPC1 neural stem cells, values given under dosage recommendations, read-out: IC50 on reduction of cholesterol accumulation, Amplex-red cholesterol assay): 50 µM | reduction of cholesterol accumulation (filipin staining) and enlarged lysosomes (Lysotracker staining) [6]: better than those of delta-tocopherol | cholesterol accumulation and neuronal cell loss [7]: reduced cholesterol accumulation and neuronal cell loss | lysosomal exocytosis [10]: promote a calcium-dependent lysosomal exocytosis

Source: patent US11020422B2, “Cyclodextrin for the treatment of lysosomal storage diseases” (The United States of America, as represented by the …, priority 2012, dated 2021)
